Laboratory results taken from PubChem BioAssay (NCI).
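Interpolation was linear, between the two tested concentrations surrounding the appropriate level; five concentrations were tested over 48 hours in 96-well plates. At the GI50, growth is halved. TGI: concentration producing complete growth inhibition.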

Tests used:
Assay in all cases: NCI tumour cell line growth inhibition, 48 h
SW-620 colon = system: SW-620 colon
SF-268 CNS = system: SF-268 CNS
T-47D breast = system: T-47D breast
SR leukemia = system: SR leukemia
HOP-92 NSCLC = system: HOP-92 NSCLC
NCI-H460 lung = system: NCI-H460 lung
OVCAR-8 ovarian = system: OVCAR-8 ovarian
NCI/ADR-RES ovarian = system: NCI/ADR-RES ovarian
OVCAR-3 ovarian = system: OVCAR-3 ovarian
SN12C renal = system: SN12C renal
UACC-257 melanoma = system: UACC-257 melanoma
NCI-H23 lung = system: NCI-H23 lung
TK-10 renal = system: TK-10 renal
MDA-MB-231 breast = system: MDA-MB-231 breast
KM12 colon = system: KM12 colon
SF-295 CNS = system: SF-295 CNS
SNB-75 CNS = system: SNB-75 CNS
RPMI-8226 leukemia = system: RPMI-8226 leukemia
PC-3 prostate = system: PC-3 prostate
OVCAR-4 ovarian = system: OVCAR-4 ovarian
SK-MEL-2 melanoma = system: SK-MEL-2 melanoma
A549 NSCLC = system: A549 NSCLC
NCI-H226 lung = system: NCI-H226 lung
DU-145 prostate = system: DU-145 prostate
HCT-15 colon = system: HCT-15 colon
A498 renal = system: A498 renal
SK-OV-3 ovarian = system: SK-OV-3 ovarian
HOP-62 NSCLC = system: HOP-62 NSCLC
IGROV1 ovarian = system: IGROV1 ovarian
OVCAR-5 ovarian = system: OVCAR-5 ovarian
CCRF-CEM leukemia = system: CCRF-CEM leukemia
CAKI-1 renal = system: CAKI-1 renal
SK-MEL-28 melanoma = system: SK-MEL-28 melanoma
HS 578T breast = system: HS 578T breast
SNB-19 CNS = system: SNB-19 CNS
U251 CNS = system: U251 CNS
MDA-MB-435 = system: MDA-MB-435
MOLT-4 leukemia = system: MOLT-4 leukemia
K-562 leukemia = system: K-562 leukemia
ACHN renal = system: ACHN renal
786-0 renal = system: 786-0 renal
UO-31 renal = system: UO-31 renal
COLO 205 colon = system: COLO 205 colon
RXF 393 renal = system: RXF 393 renal
HT29 colon = system: HT29 colon
MALME-3M melanoma = system: MALME-3M melanoma
MCF7 breast = system: MCF7 breast
SK-MEL-5 melanoma = system: SK-MEL-5 melanoma
SF-539 CNS = system: SF-539 CNS
NCI-H522 lung = system: NCI-H522 lung
M14 melanoma = system: M14 melanoma
LOX IMVI melanoma = system: LOX IMVI melanoma
EKVX NSCLC = system: EKVX NSCLC
HCT-116 colon = system: HCT-116 colon
UACC-62 melanoma = system: UACC-62 melanoma

CC(C)=CCC/C(C)=C/CC/C(C)=C/CC/C(C)=C/CSC[C@H](NC(=O)CCCCCN1CCN(C)CC1)C(=O)NC1CCCCC1
GI50 (SW-620 colon): 1.91 µM | TGI (SW-620 colon): 3.81 µM | GI50 (SF-268 CNS): 4.05 µM | TGI (SF-268 CNS): 17.5 µM | GI50 (T-47D breast): 2.31 µM | TGI (T-47D breast): 7.02 µM | GI50 (SR leukemia): 2.44 µM | TGI (SR leukemia): 6.27 µM | GI50 (HOP-92 NSCLC): 2.13 µM | TGI (HOP-92 NSCLC): 11.3 µM | GI50 (NCI-H460 lung): 1.94 µM | TGI (NCI-H460 lung): 3.73 µM | GI50 (OVCAR-8 ovarian): 3.4 µM | TGI (OVCAR-8 ovarian): 14.3 µM | GI50 (NCI/ADR-RES ovarian): 8.98 µM | TGI (NCI/ADR-RES ovarian): 33.8 µM | GI50 (OVCAR-3 ovarian): 2.66 µM | TGI (OVCAR-3 ovarian): 6.49 µM | GI50 (SN12C renal): 2.36 µM | TGI (SN12C renal): 6.19 µM | GI50 (UACC-257 melanoma): 2.09 µM | TGI (UACC-257 melanoma): 4.93 µM | GI50 (NCI-H23 lung): 4.73 µM | TGI (NCI-H23 lung): 23.4 µM | GI50 (TK-10 renal): 11.7 µM | TGI (TK-10 renal): 30.5 µM | GI50 (MDA-MB-231 breast): 2 µM | TGI (MDA-MB-231 breast): 3.84 µM | GI50 (KM12 colon): 2.03 µM | TGI (KM12 colon): 4.01 µM | GI50 (SF-295 CNS): 1.74 µM | TGI (SF-295 CNS): 3.51 µM | GI50 (SNB-75 CNS): 4.16 µM | TGI (SNB-75 CNS): 21 µM | GI50 (RPMI-8226 leukemia): 2.14 µM | TGI (RPMI-8226 leukemia): 5.13 µM | GI50 (PC-3 prostate): 1.76 µM | TGI (PC-3 prostate): 3.49 µM | GI50 (OVCAR-4 ovarian): 3.51 µM | TGI (OVCAR-4 ovarian): 15.5 µM | GI50 (SK-MEL-2 melanoma): 4.11 µM | TGI (SK-MEL-2 melanoma): 14.5 µM | GI50 (A549 NSCLC): 3.36 µM | TGI (A549 NSCLC): 14 µM | GI50 (NCI-H226 lung): 24 µM | TGI (NCI-H226 lung): 98.2 µM | GI50 (DU-145 prostate): 2.08 µM | TGI (DU-145 prostate): 4.07 µM | GI50 (HCT-15 colon): 1.78 µM | TGI (HCT-15 colon): 3.47 µM | GI50 (A498 renal): 14.4 µM | TGI (A498 renal): 34.2 µM | GI50 (SK-OV-3 ovarian): 13 µM | TGI (SK-OV-3 ovarian): 32.5 µM | GI50 (HOP-62 NSCLC): 8.63 µM | TGI (HOP-62 NSCLC): 32.2 µM | GI50 (IGROV1 ovarian): 2.91 µM | TGI (IGROV1 ovarian): 7.76 µM | GI50 (OVCAR-5 ovarian): 2.05 µM | TGI (OVCAR-5 ovarian): 5.25 µM | GI50 (CCRF-CEM leukemia): 2.51 µM | TGI (CCRF-CEM leukemia): 7.67 µM | GI50 (CAKI-1 renal): 3.08 µM | TGI (CAKI-1 renal): 11 µM | GI50 (SK-MEL-28 melanoma): 1.79 µM | TGI (SK-MEL-28 melanoma): 3.43 µM | GI50 (HS 578T breast): 3.54 µM | TGI (HS 578T breast): 17.4 µM | GI50 (SNB-19 CNS): 2.27 µM | TGI (SNB-19 CNS): 5.71 µM | GI50 (U251 CNS): 1.81 µM | TGI (U251 CNS): 3.52 µM | GI50 (MDA-MB-435): 1.66 µM | TGI (MDA-MB-435): 3.07 µM | GI50 (MOLT-4 leukemia): 3.17 µM | TGI (MOLT-4 leukemia): 8.44 µM

O=[N+]([O-])c1cc(Cl)c(Cl)cc1[N+](=O)[O-]
TGI (SW-620 colon): 7.73 µM | TGI (K-562 leukemia): 5.81 µM | TGI (ACHN renal): 6.51 µM | TGI (SF-268 CNS): 3.66 µM | TGI (T-47D breast): 6.63 µM | TGI (786-0 renal): 6.36 µM | TGI (SR leukemia): 4.98 µM | TGI (UO-31 renal): 3.62 µM | TGI (COLO 205 colon): 26.5 µM | TGI (RXF 393 renal): 3.48 µM | TGI (NCI-H460 lung): 12.3 µM | TGI (OVCAR-8 ovarian): 5.99 µM | TGI (OVCAR-3 ovarian): 3.22 µM | TGI (SN12C renal): 3.52 µM | TGI (HT29 colon): 26.9 µM | TGI (MALME-3M melanoma): 5.83 µM | TGI (MCF7 breast): 4.85 µM | TGI (UACC-257 melanoma): 4.1 µM | TGI (NCI-H23 lung): 4.83 µM | TGI (TK-10 renal): 12.3 µM | TGI (SK-MEL-5 melanoma): 29.2 µM | TGI (SF-539 CNS): 4.68 µM | TGI (MDA-MB-231 breast): 4.38 µM | TGI (KM12 colon): 13 µM | TGI (NCI-H522 lung): 3.36 µM | TGI (SF-295 CNS): 5.23 µM | TGI (M14 melanoma): 8.8 µM | TGI (LOX IMVI melanoma): 4.74 µM | TGI (EKVX NSCLC): 8.81 µM | TGI (SNB-75 CNS): 9.32 µM | TGI (RPMI-8226 leukemia): 15.2 µM | TGI (PC-3 prostate): 3.94 µM | TGI (OVCAR-4 ovarian): 4.63 µM | TGI (SK-MEL-2 melanoma): 4.74 µM | TGI (A549 NSCLC): 4.97 µM | TGI (HCT-116 colon): > 100 µM | TGI (NCI-H226 lung): 11 µM | TGI (DU-145 prostate): 4.42 µM | TGI (HCT-15 colon): 7.77 µM | TGI (A498 renal): 33 µM | TGI (HOP-62 NSCLC): 6.49 µM | TGI (IGROV1 ovarian): 3.44 µM | TGI (OVCAR-5 ovarian): 5.21 µM | TGI (CCRF-CEM leukemia): > 100 µM | TGI (CAKI-1 renal): 4.28 µM | TGI (SK-MEL-28 melanoma): 6.04 µM | TGI (HS 578T breast): 72.3 µM | TGI (UACC-62 melanoma): 4.42 µM | TGI (U251 CNS): 3.82 µM | TGI (MDA-MB-435): 12.8 µM | TGI (MOLT-4 leukemia): 0.797 µM
